Structures can show the parent of a compound that is named as a salt.
Tests used:
[1] = decomposition half-life and nitric oxide release in aqueous buffer; format: physicochemical; settings: pH 7 and 25° C.; for half-life: aqueous buffer
Protocol: The resulting gel was treated with a few drops of methanol until a homogeneous solution was obtained. The solution was transferred into a micro-Parr bottle and bubbled with nitrogen for 5 min, followed by exposure to 40 psi of NO for 72 h.
The system was degassed and charged with 40 psi of nitric oxide.
The system was evacuated, charged with 40 psi of nitric oxide and kept at 25° C. for 48 h. The white crystalline product was collected by filtration and washed with cold methanol as well as with copious amounts of ether. […] This measurement was based on the loss of the 252-nm chromophore in the ultraviolet spectrum.

[2] = tested on: RPMI 1846 melanotic melanoma cells adhering to rat mesenteric postcapillary venules; assay: adhesion of melanoma tumor cells to isolated postcapillary venules; format: cell-based, Syrian hamster (tumor cells); Sprague-Dawley rat (vessels); settings: 1 mM DETA/NO for 30 min, FIG. 1
Protocol: RPMI 1846, a melanotic melanoma of a Syrian hamster, was obtained from the American Type Culture Collection, Rockville, Md., and grown in McCoy's 5A medium (GIBCO, Grand Island, N.Y.) supplemented with 20% fetal bovine serum (GIBCO, Grand Island, N.Y.) at 37° C. in a humidified 5% CO2 atmosphere. […]
A segment of bowel and attached mesentery was excised and placed in a dissecting chamber containing ice-cold, pH 7.4 PSS (same as APSS but without added serum). […] A television camera mounted on the microscope was used to project the image onto a television monitor and the images were recorded using a videocassette recorder. […]
After a 30-min stabilization period, the vessel was perfused with tumor cell suspension. […] The number of cells sitting on the microvessel was observed and recorded. […] Five minutes later, the number of tumor cells remaining adherent to the vessel wall was counted and recorded. The percentage of adherent cells was calculated by dividing the number of tumor cells remaining adherent to the vessel wall after flow was resumed for 5 minutes by the total number of cells setting on the vessel wall when flow was interrupted. […]

[3] = cited from earlier work
[4] = tested on: DNA synthesis; settings: cited from earlier work
[5] = via exhaustion of the relevant enzyme/cofactor system; cited from earlier work

CSCC[C@H](NC(C)=O)C(=O)N1CCN([N+]([O-])=NO)CC1 [Example V, 1-[4-(N-acetyl-L-methionyl)piperazin-1-yl]-1-oxo-2-hydroxydiazene, sodium salt]
half-life [1]: 6.9 min
NO produced per mole of test agent [1]: 1.72 moles of NO per mole of test agent

NCCN(CCN)[N+]([O-])=NO [DETA/NO]
effect on LPS-enhanced tumor cell adhesion to postcapillary venules ([2]; LPS-treated venules): completely blocked the enhancing effect of LPS on tumor cell adhesion
effect on tumor cell adhesion to untreated venules ([2]; untreated venules, P<0.05): decreased tumor cell adhesion to untreated venules

Nitric oxide
solubility in aqueous media [3]: limited solubility in aqueous media

CC(=O)N[C@H](C(=O)O)C(C)(C)SN=O (racemic) [S-nitroso-N-acetylpenicillamine]
inhibition of DNA synthesis [4]: effective at inhibiting DNA synthesis

O=[N+]([O-])OCC(CO[N+](=O)[O-])O[N+](=O)[O-] [glyceryl trinitrate]
tolerance [5]: tolerance to glyceryl trinitrate can develop

CCOC(=O)N1CCN([N+]([O-])=NO)CC1 [1-(4-carbethoxypiperazin-1-yl)-1-oxo-2-hydroxydiazene, sodium salt]
half-life [1]: 5 min
